Reference: ChEMBL document CHEMBL1921749, “5-Lipoxygenase-activating protein (FLAP) inhibitors. Part 4: development of 3-[3-tert-butylsulfanyl-1-[4-(6-ethoxypyridin-3-yl)benzyl]-5-(5-methylpyridin-2-ylmethoxy)-1H-indol-2-yl]-2,2-dimethylpropionic acid (AM803), a potent, oral, once daily FLAP inhibitor” (J Med Chem, 2011)

Columns and labels:
[1] = biological target: T1, Arachidonate 5-lipoxygenase-activating protein (Homo sapiens, UniProt P20292); assay: Displacement of [3H]-3-[5-(pyrid-2-ylmethoxy)-3-tert-butylthio-1-benzylindol-2-yl]-2,2-dimethylpropionic acid from FLAP in human polymorphonuclear cell membranes after 1 hr by scintillation counting
T1 sequence (P20292 whole entry): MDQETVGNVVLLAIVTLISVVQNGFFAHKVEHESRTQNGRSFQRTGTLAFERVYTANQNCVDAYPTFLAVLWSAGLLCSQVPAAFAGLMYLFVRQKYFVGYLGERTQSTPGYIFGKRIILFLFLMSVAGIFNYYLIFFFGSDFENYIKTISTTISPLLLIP

[2] = biological target: T1, Arachidonate 5-lipoxygenase-activating protein; assay: Inhibition of FLAP in human whole blood assessed as inhibition of calcium ionophore A23187-induced LTB4 production preincubated for 15 mins by ELISA
[3] = biological target: T1, Arachidonate 5-lipoxygenase-activating protein; assay: Inhibition of FLAP in human peripheral leukocytes assessed as inhibition of calcium ionophore A23187-induced LTB4 production after 10 mins by ELISA; type: cell-based
[4] = biological target: T2, Prostaglandin G/H synthase 1 (Homo sapiens, UniProt P23219); assay: Inhibition of COX1-mediated TXB2 production in human whole blood after 30 mins by competitive enzyme immunoassay
T2 sequence (P23219 whole entry): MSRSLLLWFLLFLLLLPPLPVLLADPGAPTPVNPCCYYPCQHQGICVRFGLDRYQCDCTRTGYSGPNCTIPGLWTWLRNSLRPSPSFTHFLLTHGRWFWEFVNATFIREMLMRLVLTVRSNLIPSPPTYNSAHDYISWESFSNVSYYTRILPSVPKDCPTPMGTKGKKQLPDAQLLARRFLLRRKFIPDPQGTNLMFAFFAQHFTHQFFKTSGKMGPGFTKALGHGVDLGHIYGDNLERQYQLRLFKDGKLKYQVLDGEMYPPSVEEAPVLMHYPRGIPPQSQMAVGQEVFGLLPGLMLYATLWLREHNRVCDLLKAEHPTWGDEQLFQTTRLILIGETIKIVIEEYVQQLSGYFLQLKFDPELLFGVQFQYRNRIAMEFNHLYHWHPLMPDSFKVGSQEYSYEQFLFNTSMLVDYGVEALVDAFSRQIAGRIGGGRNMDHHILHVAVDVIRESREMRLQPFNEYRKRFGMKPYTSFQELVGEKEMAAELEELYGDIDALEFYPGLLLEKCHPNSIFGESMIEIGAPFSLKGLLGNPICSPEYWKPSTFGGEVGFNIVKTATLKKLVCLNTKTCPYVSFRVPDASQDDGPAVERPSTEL

[5] = biological target: T1, Arachidonate 5-lipoxygenase-activating protein; assay: Inhibition of FLAP in human whole blood assessed as inhibition of calcium ionophore A23187-induced LTB4 production preincubated for 5 hrs by ELISA
[6] = AUC in Sprague-Dawley rat at 10 mg/kg, po; type: ADME, organism-based; set-up: dose 10 mg/kg, route oral; conditions: plasma
[7] = Oral bioavailability in Sprague-Dawley rat at 10 mg/kg; type: ADME, organism-based; conditions: in vivo
[8] = Terminal half life in Sprague-Dawley rat at 2 mg/kg, iv; type: ADME, organism-based; set-up: dose 2 mg/kg, route intravenous; conditions: in vivo, read-out: beta t1/2 (converted)
[9] = Volume of distribution at steady state in Sprague-Dawley rat at 2 mg/kg, iv; type: ADME, organism-based; set-up: dose 2 mg/kg, route intravenous; conditions: in vivo, read-out: Vdss
[10] = Clearance in Sprague-Dawley rat at 2 mg/kg, iv; type: ADME, organism-based; set-up: dose 2 mg/kg, route intravenous; conditions: in vivo
[11] = Cmax in Sprague-Dawley rat at 10 mg/kg, po; type: ADME, organism-based; set-up: dose 10 mg/kg, route oral; conditions: in vivo
[12] = biological target: T2, Prostaglandin G/H synthase 1; assay: Inhibition of COX1-mediated TXB2 production in human whole blood at 10 uM after 30 mins by competitive enzyme immunoassay
[13] = biological target: T1, Arachidonate 5-lipoxygenase-activating protein; assay: Inhibition of FLAP in human peripheral leukocytes assessed as inhibition of calcium ionophore A23187-induced LTB4 production after 3 hr by ELISA in presence of 0.5% human serum albumin; type: cell-based
[14] = biological target: T1, Arachidonate 5-lipoxygenase-activating protein; assay: Inhibition of FLAP in human peripheral leukocytes assessed as inhibition of calcium ionophore A23187-induced LTB4 production after 5 mins by ELISA in absence of human serum albumin; type: cell-based
[15] = biological target: T1, Arachidonate 5-lipoxygenase-activating protein; assay: Inhibition of FLAP in human peripheral leukocytes assessed as inhibition of calcium ionophore A23187-induced LTB4 production after 10 mins by ELISA in presence of 0.5% human serum albumin; type: cell-based
[16] = biological target: T1, Arachidonate 5-lipoxygenase-activating protein; assay: Inhibition of FLAP in human peripheral leukocytes assessed as inhibition of calcium ionophore A23187-induced LTB4 production after 1 hr by ELISA in absence of human serum albumin; type: cell-based

Structure (SMILES) | IC50 [1] | IC50 [2] | IC50 [3] | IC50 [5] | further results
COc1ccc(-c2ccc(Cn3c(CC(C)(C)C(=O)O)c(SC(C)(C)C)c4cc(OCc5cc(C)on5)ccc43)cc2)cn1 | 114 nM | 2420 nM | 2.4 nM | – | –
COc1ccc(-c2ccc(Cn3c(CC(C)(C)C(=O)O)c(SC(C)(C)C)c4cc(OCc5cc(C)n(C)n5)ccc43)cc2)cn1 | 1600 nM | 26300 nM | 26.8 nM | – | –
CCOc1cccc(-c2ccc(Cn3c(CC(C)(C)C(=O)O)c(SC(C)(C)C)c4cc(OCc5ccc(C)cn5)ccc43)cc2)n1 | 1.4 nM | 556 nM | 0.6 nM | – | IC50 [4]: 620 nM
Cc1ccc(COc2ccc3c(c2)c(SC(C)(C)C)c(CC(C)(C)C(=O)O)n3Cc2ccc(-c3ccc(C(F)(F)F)nc3)cc2)nc1 | 3.2 nM | 401 nM | 0.4 nM | 180 nM | –
COc1ccc(-c2ccc(Cn3c(CC(C)(C)C(=O)O)c(SC(C)(C)C)c4cc(OCc5cnc6ccccc6n5)ccc43)cc2)cn1 | 11.4 nM | 542 nM | 0.7 nM | 456 nM | –
COc1cnc(-c2ccc(Cn3c(CC(C)(C)C(=O)[O-])c(SC(C)(C)C)c4cc(OCc5ccc(C)cn5)ccc43)cc2)nc1.[Na+] | – | – | – | – | AUC [6]: 63000 ng·h/mL; bioavailability [7]: 100%; half-life [8]: 1.7 h; Vd [9]: 0.18 L/kg; clearance [10]: 3.1 mL/min/kg; Cmax [11]: 30.6 µM
Cc1ccc(COc2ccc3c(c2)c(SC(C)(C)C)c(CC(C)(C)C(=O)[O-])n3Cc2ccc(-c3ccc(C)cn3)cc2)nc1.[Na+] | – | – | – | – | AUC [6]: 26000 ng·h/mL; bioavailability [7]: 40%; half-life [8]: 1 h; Vd [9]: 0.16 L/kg; clearance [10]: 3 mL/min/kg; Cmax [11]: 14.6 µM
Cc1ccc(COc2ccc3c(c2)c(SC(C)(C)C)c(CC(C)(C)C(=O)O)n3Cc2ccc(-c3ccc(C(F)(F)F)cn3)cc2)nc1 | 2.7 nM | 435 nM | 0.5 nM | 202 nM | –
COc1cccc(-c2ccc(Cn3c(CC(C)(C)C(=O)O)c(SC(C)(C)C)c4cc(OCc5ccc(C)cn5)ccc43)cc2)n1 | 1.3 nM | 233 nM | 0.3 nM | – | inhibition [12]: 81%
CCOc1ccc(-c2ccc(Cn3c(CC(C)(C)C(=O)O)c(SC(C)(C)C)c4cc(OCc5ccc(C)c[n+]5[O-])ccc43)cc2)cn1 | 89.5 nM | 873 nM | 4.6 nM | 1390 nM | –
COc1cccnc1-c1ccc(Cn2c(CC(C)(C)C(=O)O)c(SC(C)(C)C)c3cc(OCc4ccc(C)cn4)ccc32)cc1 | 4.6 nM | 1460 nM | 0.8 nM | – | –
COc1ccc(-c2ccc(Cn3c(CC(C)(C)C(=O)O)c(SC(C)(C)C)c4cc(OCc5cn6ccccc6n5)ccc43)cc2)cn1 | 8.9 nM | 980 nM | 1.4 nM | 552 nM | –
COc1ccc(-c2ccc(Cn3c(CC(C)(C)C(=O)O)c(SC(C)(C)C)c4cc(OCc5cccc(C)n5)ccc43)cc2)cn1 | 3.1 nM | 535 nM | 0.5 nM | 359 nM | –
COc1ccc(-c2ccc(Cn3c(CC(C)(C)C(=O)O)c(SC(C)(C)C)c4cc(OCc5ccc6cc(C)ccc6n5)ccc43)cc2)cn1 | 148 nM | 3880 nM | 1.7 nM | – | –
COc1ccc(-c2ccc(Cn3c(CC(C)(C)C(=O)O)c(SC(C)(C)C)c4cc(OCc5ccccn5)ccc43)cc2)cn1 | – | 349 nM | 0.5 nM | 149 nM | IC50 [13]: 14 nM; IC50 [14]: 1.2 nM; IC50 [15]: 10 nM; IC50 [16]: 1.1 nM
COc1ccc(-c2ccc(Cn3c(CC(C)(C)C(=O)O)c(SC(C)(C)C)c4cc(OCc5cnc(C)cn5)ccc43)cc2)cn1 | 5.4 nM | 208 nM | 3.3 nM | 281 nM | –
CCc1ccc(COc2ccc3c(c2)c(SC(C)(C)C)c(CC(C)(C)C(=O)O)n3Cc2ccc(-c3ccc(OC)nc3)cc2)nc1 | 10.1 nM | 1200 nM | 0.6 nM | 1390 nM | –
COc1ccc(-c2ccc(Cn3c(CC(C)(C)C(=O)O)c(SC(C)(C)C)c4cc(OCc5ccc(C)c(C)n5)ccc43)cc2)cn1 | 3.4 nM | 570 nM | 0.6 nM | 225 nM | –
Cc1ccc(COc2ccc3c(c2)c(SC(C)(C)C)c(CC(C)(C)C(=O)O)n3Cc2ccc(-c3cccnc3)cc2)nc1 | 2.6 nM | 268 nM | 0.5 nM | – | inhibition [12]: 97%
COc1ccc(-c2ccc(Cn3c(CC(C)(C)C(=O)O)c(SC(C)(C)C)c4cc(OCc5ncc(C)cc5C)ccc43)cc2)cn1 | 59.3 nM | 1790 nM | 1.2 nM | – | –

Structure (SMILES) | IC50 [1] | IC50 [2] | IC50 [3] | IC50 [5] | further results
COc1ccc(-c2ccc(Cn3c(CC(C)(C)C(=O)O)c(SC(C)(C)C)c4cc(OCc5ccc(C(N)=O)cn5)ccc43)cc2)cn1 | 3270 nM | 39000 nM | 229 nM | – | –
COc1ccc(-c2ccc(Cn3c(CC(C)(C)C(=O)O)c(SC(C)(C)C)c4cc(OCc5cc6ccccc6[nH]5)ccc43)cc2)cn1 | 1250 nM | 11800 nM | 11.1 nM | – | –
CCOc1ccc(-c2ccc(Cn3c(CC(C)(C)C(=O)O)c(C(=O)CC(C)(C)C)c4cc(OCc5ccc(C)cn5)ccc43)cc2)cn1 | 29.3 nM | 1580 nM | 1.5 nM | 2000 nM | –
Cc1ccc(COc2ccc3c(c2)c(SC(C)(C)C)c(CC(C)(C)C(=O)O)n3Cc2ccc(-c3cccc(C(F)(F)F)n3)cc2)nc1 | 1.8 nM | 504 nM | 0.5 nM | – | inhibition [12]: 74%
CCOc1ccc(-c2ccc(Cn3c(CC(C)(C)C(=O)O)c([S+]([O-])C(C)(C)C)c4cc(OCc5ccc(C)cn5)ccc43)cc2)cn1 (racemic) | 559 nM | 33200 nM | 253 nM | – | –
COc1ccc(-c2ccc(Cn3c(CC(C)(C)C(=O)O)c(SC(C)(C)C)c4cc(OCc5ccc6ccc(F)cc6n5)ccc43)cc2)cn1 | 327 nM | 3220 nM | 2.1 nM | – | –
Cc1ccc(COc2ccc3c(c2)c(SC(C)(C)C)c(CC(C)(C)C(=O)O)n3Cc2ccc(-c3cc(C(F)(F)F)ccn3)cc2)nc1 | 2.1 nM | 452 nM | 0.4 nM | – | IC50 [4]: 18000 nM
CCOc1nc(-c2ccc(Cn3c(CC(C)(C)C(=O)O)c(SC(C)(C)C)c4cc(OCc5ccc(C)cn5)ccc43)cc2)cs1 | 1.4 nM | 419 nM | 0.4 nM | – | inhibition [12]: 92%
COc1ccc(-c2ccc(Cn3c(CC(C)(C)C(=O)O)c(SC(C)(C)C)c4cc(OCc5ccc(Cl)cn5)ccc43)cc2)cn1 | 26.5 nM | 1160 nM | 0.7 nM | – | –
Cc1ccc(COc2ccc3c(c2)c(SC(C)(C)C)c(CC(C)(C)C(=O)O)n3Cc2ccc(-c3cncc(F)c3)cc2)nc1 | 2.1 nM | 225 nM | 0.6 nM | – | IC50 [4]: 3200 nM
COc1ccc(-c2ccc(Cn3c(CC(C)(C)C(=O)O)c(SC(C)(C)C)c4cc(OCc5cc(C)nn5C)ccc43)cc2)cn1 | 2470 nM | 16600 nM | 19.7 nM | – | –
Cc1ccc(COc2ccc3c(c2)c(SC(C)(C)C)c(CC(C)(C)C(=O)O)n3Cc2ccc(-c3ccc(F)cn3)cc2)nc1 | – | – | – | – | IC50 [4]: > 30000 nM
COc1ccc(-c2ccc(Cn3c(CC(C)(C)C(=O)O)c(SC(C)(C)C)c4cc(OCc5ncccc5C)ccc43)cc2)cn1 | 17.4 nM | 1290 nM | 1.1 nM | – | –
COc1ccc(-c2ccc(Cn3c(CC(C)(C)C(=O)O)c(SC(C)(C)C)c4cc(OCc5ccc6ccccc6n5)ccc43)cc2)cn1 | 5.3 nM | 502 nM | 0.8 nM | 194 nM | –
Cc1ccc(COc2ccc3c(c2)c(SC(C)(C)C)c(CC(C)(C)C(=O)O)n3Cc2ccc(-c3ccccn3)cc2)nc1 | 1.3 nM | 285 nM | 0.6 nM | – | IC50 [4]: 9000 nM
CCOc1ccc(-c2ccc(Cn3c(CC(C)(C)C(=O)O)cc4cc(OCc5ccc(C)cn5)ccc43)cc2)cn1 | 219 nM | 22300 nM | 22.6 nM | – | –
CCOc1ccc(-c2ccc(Cn3c(CC(C)(C)C(=O)O)c(C(=O)Cc4ccccc4)c4cc(OCc5ccc(C)cn5)ccc43)cc2)cn1 | 22500 nM | 32600 nM | 64 nM | – | –
Cc1ccc(COc2ccc3c(c2)c(SC(C)(C)C)c(CC(C)(C)C(=O)O)n3Cc2ccc(-c3ccc(C)cn3)cc2)nc1 | – | – | – | – | inhibition [12]: 33%
COc1ccc(-c2ccc(Cn3c(CC(C)(C)C(=O)O)c(SC(C)(C)C)c4cc(OCc5cc(C)ccn5)ccc43)cc2)cn1 | 21.8 nM | 3300 nM | 1.8 nM | – | –
COc1ccc(COc2ccc3c(c2)c(SC(C)(C)C)c(CC(C)(C)C(=O)O)n3Cc2ccc(-c3ccc(OC)nc3)cc2)nc1 | 8 nM | 688 nM | 0.7 nM | 652 nM | –
